In publication PMC5884906, “Single Administration of HBK-15—a Triple 5-HT1A, 5-HT7, and 5-HT3 Receptor Antagonist—Reverses Depressive-Like Behaviors in Mouse Model of Depression Induced by Corticosterone” (Molecular Neurobiology, 2017):
Like-named read-outs stand apart in the source and are kept apart here.

Tests used:
[1] = target: T1, 5-HT3 receptors expressed in guinea pig ileum (Cavia porcellus, UniProt O70212); assay: guinea pig ileum contractions induced by serotonin; type: biochemical; details: for type of antagonism at 5-HT3 receptors: from depression of serotonin maximum; for Kd: functional affinity, double-reciprocal plot, read-out: 5-HT3 receptor pK B ± S.E.M (converted)
T1 construct: A segment (15 cm) of male guinea pig ileum was excised from the small intestine; from tissue; host or cells: isolated male guinea pig ileum segments in an organ bath
T1 sequence (O70212 20-490): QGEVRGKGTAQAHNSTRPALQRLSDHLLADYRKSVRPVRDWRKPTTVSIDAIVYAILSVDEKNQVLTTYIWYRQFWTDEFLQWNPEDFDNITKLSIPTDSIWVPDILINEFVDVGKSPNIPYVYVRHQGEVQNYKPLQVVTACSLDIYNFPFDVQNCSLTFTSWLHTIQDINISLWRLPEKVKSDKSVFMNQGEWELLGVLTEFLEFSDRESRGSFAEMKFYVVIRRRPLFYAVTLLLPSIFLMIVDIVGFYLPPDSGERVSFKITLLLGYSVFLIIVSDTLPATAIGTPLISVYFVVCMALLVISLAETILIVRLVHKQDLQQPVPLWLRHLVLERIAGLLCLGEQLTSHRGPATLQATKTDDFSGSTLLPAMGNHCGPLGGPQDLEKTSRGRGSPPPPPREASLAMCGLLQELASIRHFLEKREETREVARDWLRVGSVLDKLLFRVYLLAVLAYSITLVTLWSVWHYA

[2] = pharmacokinetic study in plasma after i.v. and i.p. administration; type: in vivo, mice; details: HBK-14 2.5 mg/kg, HBK-15 1.25 mg/kg; for AUC(0-inf) / C0: mouse plasma; for C0: read-out: C 0 (initial concentration); for Cmax / MRT / half-life / Tmax / bioavailability / clearance / Vd: CD-1, mouse, plasma; for Cmax: read-out: C max (maximum plasma concentration); for MRT: read-out: MRT (mean residence time) (converted); for half-life: read-out: t 0.5 (terminal half-life); for Tmax: read-out: t max (time to reach the maximum plasma concentration) (converted); for bioavailability: after i.p. administration, AUCi.p./AUCi.v., read-out: F (absolute bioavailability); for clearance: read-out: Cl (systemic clearance); for Vd: read-out: V d (volume of distribution at steady state)
Experimental: (§1) For pharmacokinetic study, HBK-14 and HBK-15 dissolved in saline were administered by an intravenous (i.v.) and intraperitoneal (i.p.) administration at a dose of 2.5 and 1.25 mg/kg, respectively. Blood samples were collected at 0 min (predose), 5 min, 15 min, 30 min, 60 min, 120 min, and 240 min after compounds administration. The blood and brain samples were collected under general anesthesia induced by i.p. injections of 50 mg/kg ketamine plus 8 mg/kg xylazine. Blood samples were collected into heparinized tubes. The samples were immediately centrifuged at 3500 rpm for 10 min, and plasma was collected. The brain and plasma samples were immediately frozen at −80 °C for further analysis.
Pharmacokinetic parameters were calculated by a non-compartmental approach from the average concentration values, using Phoenix WinNonlin software (Certara, Princeton, NJ 08540, USA). First-order elimination rate constant (λ z) was calculated by linear regression of time vs log concentration. Next, the area under the mean serum and brain concentration vs time curve extrapolated to infinity (AUC0→∞) was estimated using the log-linear trapezoidal rule (Eq. 1), where C n is the concentration of last sampling of each compound.1 AUC0→∞=∑i=1nCi+Ci+1/2⋅ti+1−ti+Cn/λz
Area under the first moment curve (AUMC0→∞) was estimated by calculation of the total area under the first moment curve and extrapolated area using the Eq. 2, where t n is the time of last sampling.2 AUMC0→∞=∑i=1nti⋅Ci+ti+1⋅Ci+1/2⋅ti+1−ti+tn⋅Cn/λz+Cn/λz2
Mean residence time (MRT) was calculated as3 MRT=AUMC0→∞/AUC0→∞
Total clearance (ClT) was calculated as4 ClT=Div/AUC0→∞
Volume of distribution at steady state (Vss) was calculated as5 Vss=Div⋅AUMC0→∞/AUC0→∞^2
(§2) The quantification of studied compounds in plasma and brain samples was accomplished using UFLC Nexera system (Shimadzu, Kyoto, Japan) coupled to the triple quadrupole mass spectrometer QTrap 5500 (Sciex, Framingham, MA, USA) equipped with Turbo V™ ion source. After preparation, the samples were injected (5 μL) onto Acquity UPLC BEH C18 (3.0 × 100 mm, 1.7 μm, Waters, Milford, MA, USA) analytical column. The mobile phases that consisted of ACN with 0.1% FA (A) and water with 0.1% FA (B) were delivered in isocratic elution mode (40% A, 60% B) at the flow rate of 550 μL/min. The total time of analysis was 8 min including 2 min of column equilibration.
Electrospray ionization process was performed in positive polarization, and the data acquisition was carried out in multiple reaction monitoring mode (MRM) for all analytes and their internal standard (HBK-11 [37]). The ion spray source settings were as follows: spray voltage 4.5 kV, heater temperature 450 °C, curtain gas 25 psi, source gas 1 40 psi, source gas 2 40 psi.
(§3) An amount of 50 μL of sample (plasma or brain homogenate) was transferred into the clean Eppendorf tube and spiked with 5 μL of internal standard solution (IS, 1 μg/mL) obtaining the final concentration of 100 ng/mL. After 5 min of mixing (1500 rpm), proteins were precipitated using 150 μL ACN. After 10 min of samples shaking (1500 rpm), the incubation step was performed (10 min, 4 °C). Next, samples were centrifuged (10,000 rpm, 10 min, 4 °C) and the supernatant was transferred into chromatographic vial for LC/MS/MS analysis.

[3] = distribution to brain after i.v. and i.p. administration; type: in vivo, mice; details: for Kp: brain and plasma, HBK-14 2.5 mg/kg, HBK-15 1.25 mg/kg, read-out: brain/plasma ratio
Experimental: as §1, §2, §3
The brain homogenate was prepared maintaining the tissue: phosphate-buffered saline (PBS) ratio at 1:5. The homogenization was carried out employing IKA® T10 Basic ULTRA-TURRAX disperser (IKA Werke GmbH & Co. KG, Staufen, Germany). After homogenization, all samples were centrifuged (3000 rpm, 10 min, 4 °C) and 50 μL of supernatant was collected for further preparation. All samples were stored on ice during the preparation process.

[4] = cited from earlier work; for effect on blood pressure after chronic treatment: antidepressant- and anxiolytic-like doses
[5] = target: serotonergic 5-HT2A receptors; design: method as in PMID 26554929; details: read-out: affinity for serotonergic 5-HT2A receptors, Ki; cited from earlier work
D2 receptors = target: D2 receptors; design: method as in unpublished results; details: not measured here; ref unpublished results; read-out: D2 receptor antagonism IC50; cited from earlier work
5-HT2A receptors = target: 5-HT2A receptors; design: method as in unpublished results; details: not measured here; ref unpublished results; read-out: 5-HT2A receptor antagonism IC50; cited from earlier work
mice = details: scopolamine-induced deficits; cited from earlier work
[6] = design: method as in unpublished results; details: ref unpublished results; cited from earlier work
[7] = mouse, other: intravenous and intraperitoneal (both arms), after i.v. and i.p. administration

Compound | type of antagonism at 5-HT3 receptors [1] | Kd [1] [nM] | AUC(0-inf) ([2]; CD-1, ip, i.p.) [ng·h/mL] | AUC(0-inf) ([2]; CD-1, iv, i.v.) [ng·h/mL] | C0 ([2]; CD-1, iv, i.v.) [ng/mL] | Cmax ([2]; ip) [ng/mL] | MRT ([2]; ip) [h] | half-life ([2]; ip) [h] | Tmax ([2]; ip) [min] | bioavailability ([2]; ip) [%] | clearance ([2]; iv) [mL/min/kg] | MRT ([2]; iv) [h] | Vd ([2]; iv) [L/kg] | half-life ([2]; iv) [h] | t 0.5 (terminal half-life) ([2]; i.p.) [h] | t 0.5 (terminal half-life) ([2]; i.v.) [h] | Kp ([3]; CD-1, mouse, ip) | Kp ([3]; CD-1, mouse, iv) | Kp [3, 7] | effect on blood pressure after chronic treatment [4] | further results
COc1ccccc1N1CCN(CCOCCOc2c(C)cccc2C)CC1.Cl [HBK-14, 1-[(2,6-Dimethylphenoxy)ethoxyethyl]-4-(2-methoxyphenyl)piperazine hydrochloride] | non-competitive antagonism | 11.2 | 560 | 1720 | 410 | 269 | 0.805 | 0.633 | 5 | 15 | 24.2 | 7.57 | 11.2 | 5.38 | 0.637 | 5.378 | 0.46 | 0.8 | < 1 | neither HBK-14 nor HBK-15 lowered blood pressure | 
COc1ccccc1N1CCN(CCOCCOc2c(C)cccc2Cl)CC1.Cl [HBK-15, 1-[(2-chloro-6-methylphenoxy)ethoxyethyl]-4-(2-methoxyphenyl)piperazine hydrochloride] | non-competitive interaction with 5-HT3 receptors | 43.6 | 261 | 484 | 602 | 359 | 1.81 | 1.4 | 5 | 54 | 40.2 | 1.5 | 3.5 | 1.18 | 1.39 | 1.18 | 0.27 | 0.68 | < 1 | neither HBK-14 nor HBK-15 lowered blood pressure | Tmax ([3]; CD-1, mouse, brain, ip, 1.25 mg/kg, read-out: time of maximal concentration in the brain (converted)): 5 min; Ki [5]: 109 nM; IC50 (D2 receptors): 68 nM; IC50 (5-HT2A receptors): 4460 nM; hypotensive activity after single administration [4]: did not exhibit hypotensive activity; effect on memory (mice): showed memory-enhancing properties; antipsychotic-like or cataleptogenic properties [6]: did not show antipsychotic-like or cataleptogenic properties
